Test results published in patent US12447153B2, “HER2 mutation inhibitors” (Array BioPharma Inc., priority 2021, dated 2025).

Legend:
EGFR = EGFR (Homo sapiens (Human), UniProt P00533); test: ErbB Enzyme Assay (HTRF KinEASE-TK), Assay 3; assay type: biochemical; settings: EGFR enzyme
BCRP = BCRP (Homo sapiens (Human), UniProt Q9UNQ0); test: BCRP MDCKII efflux assay (Assay 7); assay type: in vitro ADME; settings: dog; efflux ratio Papp(B-A)/Papp(A-B), BCRP MDCKII cells; read-out: Assay 7 Pe Ratio
Sequence of BCRP (Q9UNQ0 whole entry): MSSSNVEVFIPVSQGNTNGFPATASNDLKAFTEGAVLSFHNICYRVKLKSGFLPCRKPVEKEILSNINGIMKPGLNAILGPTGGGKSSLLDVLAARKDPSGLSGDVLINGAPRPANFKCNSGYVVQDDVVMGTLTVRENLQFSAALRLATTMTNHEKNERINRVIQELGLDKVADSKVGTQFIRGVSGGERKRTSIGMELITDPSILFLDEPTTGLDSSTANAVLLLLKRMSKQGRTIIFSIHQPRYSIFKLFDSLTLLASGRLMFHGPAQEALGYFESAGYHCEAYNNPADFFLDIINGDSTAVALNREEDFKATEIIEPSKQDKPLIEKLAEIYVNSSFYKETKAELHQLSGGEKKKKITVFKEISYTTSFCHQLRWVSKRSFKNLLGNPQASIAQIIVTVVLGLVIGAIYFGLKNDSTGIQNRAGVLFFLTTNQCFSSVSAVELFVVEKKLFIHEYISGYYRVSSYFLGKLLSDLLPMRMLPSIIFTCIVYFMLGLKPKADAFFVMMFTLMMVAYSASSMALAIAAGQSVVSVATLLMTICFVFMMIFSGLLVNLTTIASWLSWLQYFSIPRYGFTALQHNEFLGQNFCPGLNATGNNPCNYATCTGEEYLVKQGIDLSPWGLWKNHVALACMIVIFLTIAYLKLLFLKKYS
Experimental: Assay conditions included with and without the BCRP-specific inhibitor, KO143, at a concentration of 0.3 μM to ascertain the contribution of BCRP to the efflux value of the test compound.
Final organic concentration in the assay was 1%.

ErbB2 WT = ErbB2 WT (Homo sapiens (Human), UniProt P04626); test: ErbB Enzyme Assay (HTRF KinEASE-TK), Assay 2; assay type: biochemical; settings: ErbB2 WT enzyme
Sequence of ErbB2 WT (P04626 23-1255): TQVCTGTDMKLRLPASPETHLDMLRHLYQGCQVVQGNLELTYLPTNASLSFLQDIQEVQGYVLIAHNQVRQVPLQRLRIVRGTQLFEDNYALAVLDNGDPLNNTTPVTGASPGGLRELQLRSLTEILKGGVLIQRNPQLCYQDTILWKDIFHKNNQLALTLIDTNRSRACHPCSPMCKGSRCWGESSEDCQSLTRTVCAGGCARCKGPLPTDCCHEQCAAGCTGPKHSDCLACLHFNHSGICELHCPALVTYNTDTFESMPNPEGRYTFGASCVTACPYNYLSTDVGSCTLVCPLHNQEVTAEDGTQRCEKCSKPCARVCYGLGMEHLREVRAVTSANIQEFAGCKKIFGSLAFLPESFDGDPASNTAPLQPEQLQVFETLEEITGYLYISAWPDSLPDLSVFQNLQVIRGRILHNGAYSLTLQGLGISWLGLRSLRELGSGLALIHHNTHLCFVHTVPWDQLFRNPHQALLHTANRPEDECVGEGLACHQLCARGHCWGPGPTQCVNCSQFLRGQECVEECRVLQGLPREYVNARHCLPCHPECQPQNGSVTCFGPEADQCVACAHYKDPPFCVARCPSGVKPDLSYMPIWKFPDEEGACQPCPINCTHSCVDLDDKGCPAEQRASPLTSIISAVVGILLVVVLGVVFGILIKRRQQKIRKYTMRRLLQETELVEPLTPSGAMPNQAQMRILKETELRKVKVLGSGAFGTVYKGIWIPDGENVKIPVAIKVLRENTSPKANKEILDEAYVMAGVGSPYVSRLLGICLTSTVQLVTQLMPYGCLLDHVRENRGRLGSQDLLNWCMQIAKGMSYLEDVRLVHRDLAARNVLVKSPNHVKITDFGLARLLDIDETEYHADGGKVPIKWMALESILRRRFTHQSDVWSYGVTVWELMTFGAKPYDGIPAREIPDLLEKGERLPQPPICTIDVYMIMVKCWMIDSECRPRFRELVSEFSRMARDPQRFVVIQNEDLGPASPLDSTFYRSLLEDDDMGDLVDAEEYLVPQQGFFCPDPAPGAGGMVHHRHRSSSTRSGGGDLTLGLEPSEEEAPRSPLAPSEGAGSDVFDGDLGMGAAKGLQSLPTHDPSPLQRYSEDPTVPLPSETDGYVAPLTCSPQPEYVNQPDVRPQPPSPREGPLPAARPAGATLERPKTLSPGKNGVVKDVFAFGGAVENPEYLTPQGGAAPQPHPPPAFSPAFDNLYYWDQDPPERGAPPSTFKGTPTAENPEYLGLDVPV

[1] = biological target: ErbB2 with Exon 20 YVMA insertion (HER2-YVMA) (Homo sapiens (Human), UniProt P04626, INS775YVMA); test: Cellular Phosphorylation Assay, Assay 4 (constitutive ErbB2 phosphorylation, NIH 3T3 cells); assay type: cell-based; settings: ErbB2 YVMA phosphorylation
Sequence of ErbB2 with Exon 20 YVMA insertion (HER2-YVMA) (P04626 other isoform, or with tags, fused parts or gaps ins YVMA behind 775): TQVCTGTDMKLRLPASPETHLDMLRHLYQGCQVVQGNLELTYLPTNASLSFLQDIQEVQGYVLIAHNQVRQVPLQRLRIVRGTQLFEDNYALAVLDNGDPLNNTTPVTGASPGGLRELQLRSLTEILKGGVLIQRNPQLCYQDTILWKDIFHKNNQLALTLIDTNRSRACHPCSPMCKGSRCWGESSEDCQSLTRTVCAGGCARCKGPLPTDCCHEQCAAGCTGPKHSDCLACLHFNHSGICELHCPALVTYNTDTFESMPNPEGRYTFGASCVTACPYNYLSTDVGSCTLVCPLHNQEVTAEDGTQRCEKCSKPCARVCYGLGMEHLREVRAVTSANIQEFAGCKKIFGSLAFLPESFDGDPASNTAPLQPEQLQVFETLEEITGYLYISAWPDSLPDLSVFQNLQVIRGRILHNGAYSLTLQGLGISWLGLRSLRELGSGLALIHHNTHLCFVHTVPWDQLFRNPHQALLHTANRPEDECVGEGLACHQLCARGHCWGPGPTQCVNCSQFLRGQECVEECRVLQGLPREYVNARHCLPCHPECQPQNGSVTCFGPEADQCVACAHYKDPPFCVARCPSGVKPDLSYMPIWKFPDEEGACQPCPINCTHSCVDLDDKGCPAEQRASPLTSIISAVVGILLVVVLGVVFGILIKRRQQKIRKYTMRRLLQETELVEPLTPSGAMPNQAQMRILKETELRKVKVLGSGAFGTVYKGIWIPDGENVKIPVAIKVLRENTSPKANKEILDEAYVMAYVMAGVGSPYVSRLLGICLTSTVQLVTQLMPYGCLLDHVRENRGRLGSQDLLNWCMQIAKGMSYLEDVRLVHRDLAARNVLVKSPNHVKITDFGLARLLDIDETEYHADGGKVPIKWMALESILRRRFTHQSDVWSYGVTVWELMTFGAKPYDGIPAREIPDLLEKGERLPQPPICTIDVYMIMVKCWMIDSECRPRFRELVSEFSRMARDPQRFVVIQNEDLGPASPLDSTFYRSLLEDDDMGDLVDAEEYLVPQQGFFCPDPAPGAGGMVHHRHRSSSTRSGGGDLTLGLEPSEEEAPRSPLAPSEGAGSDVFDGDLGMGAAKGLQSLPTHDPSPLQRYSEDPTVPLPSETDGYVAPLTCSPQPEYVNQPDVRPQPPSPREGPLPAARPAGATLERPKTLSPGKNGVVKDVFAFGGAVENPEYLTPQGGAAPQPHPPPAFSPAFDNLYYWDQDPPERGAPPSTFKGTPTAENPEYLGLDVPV

EGFR wild type (EGFR WT) = EGFR wild type (EGFR WT) (Homo sapiens (Human), UniProt P00533); test: Cellular Phosphorylation Assay, Assay 5 (EGF-stimulated EGFR phosphorylation, NIH 3T3 cells); assay type: cell-based; settings: EGF-stimulated EGFR WT phosphorylation
Sequence of EGFR wild type (EGFR WT) (P00533 25-1210): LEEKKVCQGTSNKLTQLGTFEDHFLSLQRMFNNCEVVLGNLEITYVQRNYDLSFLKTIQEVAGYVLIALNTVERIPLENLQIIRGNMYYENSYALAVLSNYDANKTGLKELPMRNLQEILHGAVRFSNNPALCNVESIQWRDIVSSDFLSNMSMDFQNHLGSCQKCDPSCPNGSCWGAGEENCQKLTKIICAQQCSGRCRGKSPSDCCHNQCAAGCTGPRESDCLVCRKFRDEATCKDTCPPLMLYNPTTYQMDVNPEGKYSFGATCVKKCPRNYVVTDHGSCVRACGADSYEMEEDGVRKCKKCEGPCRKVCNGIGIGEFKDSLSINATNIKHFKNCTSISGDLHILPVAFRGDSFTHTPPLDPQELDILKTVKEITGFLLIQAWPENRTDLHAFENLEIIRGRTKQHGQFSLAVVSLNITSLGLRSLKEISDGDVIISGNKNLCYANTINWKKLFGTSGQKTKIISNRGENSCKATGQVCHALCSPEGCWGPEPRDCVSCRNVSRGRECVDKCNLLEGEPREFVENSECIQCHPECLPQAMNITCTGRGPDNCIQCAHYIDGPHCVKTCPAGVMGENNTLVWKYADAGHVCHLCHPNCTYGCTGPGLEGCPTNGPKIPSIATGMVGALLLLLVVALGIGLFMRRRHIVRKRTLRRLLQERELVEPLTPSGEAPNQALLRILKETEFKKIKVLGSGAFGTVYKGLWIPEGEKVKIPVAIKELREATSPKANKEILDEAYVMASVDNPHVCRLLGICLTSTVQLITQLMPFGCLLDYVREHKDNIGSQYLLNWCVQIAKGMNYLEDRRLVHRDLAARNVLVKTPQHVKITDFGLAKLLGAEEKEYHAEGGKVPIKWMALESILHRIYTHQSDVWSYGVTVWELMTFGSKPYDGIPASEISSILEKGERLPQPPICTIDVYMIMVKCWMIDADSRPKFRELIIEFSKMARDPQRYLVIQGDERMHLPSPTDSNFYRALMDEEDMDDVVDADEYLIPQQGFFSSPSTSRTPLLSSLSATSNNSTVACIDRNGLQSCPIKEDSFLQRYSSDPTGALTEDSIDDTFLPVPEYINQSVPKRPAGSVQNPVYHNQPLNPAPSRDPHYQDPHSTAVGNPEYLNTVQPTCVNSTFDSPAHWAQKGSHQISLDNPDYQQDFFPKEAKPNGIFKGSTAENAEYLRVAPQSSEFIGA

SMILES | IC50 (EGFR) [µM] | efflux ratio at 2 h, 1 µM (BCRP) | IC50 (ErbB2 WT) [µM] | IC50 [1] [µM] | IC50 (EGFR wild type (EGFR WT)) [µM]
C=CC(=O)N1CCN(c2ccc3ncnc(Nc4cc(Cl)c(Oc5ccn6ncnc6c5)cc4F)c3n2)CC1 [Example 81, 1-(4-(4-((4-([1,2,4]triazolo[1,5-a]pyridin-7-yloxy)-5-chloro-2-fluorophenyl)amino)pyrido[3,2-d]pyrimidin-6-yl)piperazin-1-yl)prop-2-en-1-one] | 9.43 | 17.4 | 0.0332 | 0.0095 | ≥ 5
C=CC(=O)N1C[C@H]2C[C@@H]1CN2c1ccc2ncnc(Nc3ccc(Oc4ccc5c(c4)ncn5C)c(C)c3F)c2n1 [Example 83, 1-((1R,4R)-5-(4-((2-fluoro-3-methyl-4-((1-methyl-1H-benzo[d]imidazol-5-yl)oxy)phenyl)amino)pyrido[3,2-d]pyrimidin-6-yl)-2,5-diazabicyclo[2.2.1]heptan-2-yl)prop-2-en-1-one] | 5.58 | 6.3 | 0.0815 | 0.0096 | ≥ 5
C=CC(=O)N1C[C@H]2C[C@@H]1CN2c1ccc2ncnc(Nc3ccc(Oc4ccn5ncnc5c4)c(C)c3F)c2n1 [Example 94, 1-((1R,4R)-5-(4-((4-([1,2,4]triazolo[1,5-a]pyridin-7-yloxy)-2-fluoro-3-methylphenyl)amino)pyrido[3,2-d]pyrimidin-6-yl)-2,5-diazabicyclo[2.2.1]heptan-2-yl)prop-2-en-1-one] | ≥ 10 | 6.8 | 0.17 | 0.0306 | ≥ 5
C=CC(=O)N1CCN(c2ccc3ncnc(Nc4ccc(Oc5ccn6ncnc6c5)c(Cl)c4)c3n2)CC1 [Example 97, 1-(4-(4-((4-([1,2,4]triazolo[1,5-a]pyridin-7-yloxy)-3-chlorophenyl)amino)pyrido[3,2-d]pyrimidin-6-yl)piperazin-1-yl)prop-2-en-1-one] | 0.344 | 47 | 0.0032 | 0.0032 | 0.413
C=CC(=O)N1CCCN(c2ccc3ncnc(Nc4ccc(Oc5ccn6ncnc6c5)c(Cl)c4F)c3n2)CC1 [Example 98, 1-(4-(4-((4-([1,2,4]triazolo[1,5-a]pyridin-7-yloxy)-3-chloro-2-fluorophenyl)amino)pyrido[3,2-d]pyrimidin-6-yl)-1,4-diazepan-1-yl)prop-2-en-1-one] | 3.36 | 11 | 0.0511 | 0.0189 | 2.68
C=CC(=O)N1CCN(c2ccc3ncnc(Nc4ccc(Oc5ccc6c(c5)ncn6C)c(C)c4)c3n2)CC1(C)C [Example 103, 1-(2,2-dimethyl-4-(4-((3-methyl-4-((1-methyl-1H-benzo[d]imidazol-5-yl)oxy)phenyl)amino)pyrido[3,2-d]pyrimidin-6-yl)piperazin-1-yl)prop-2-en-1-one] | ≥ 10 | 10.9 | 0.0029 | 0.0046 | 1.32
C=CC(=O)N1CCN(c2ccc3ncnc(Nc4ccc(Oc5ccc6c(c5)ncn6C)c(C)c4)c3n2)CC1 [Example 105, 1-(4-(4-((3-methyl-4-((1-methyl-1H-benzo[d]imidazol-5-yl)oxy)phenyl)amino)pyrido[3,2-d]pyrimidin-6-yl)piperazin-1-yl)prop-2-en-1-one] | 0.68 | 31.6 | 0.0119 | 0.005 | 1.35
C=CC(=O)N1[C@H](C)CN(c2ccc3ncnc(Nc4ccc(Oc5ccc6c(c5)ncn6C)c(C)c4)c3n2)C[C@@H]1C [Example 106, 1-((2S,6R)-2,6-dimethyl-4-(4-((3-methyl-4-((1-methyl-1H-benzo[d]imidazol-5-yl)oxy)phenyl)amino)pyrido[3,2-d]pyrimidin-6-yl)piperazin-1-yl)prop-2-en-1-one] | 7.79 | 10.1 | 0.0185 | 0.006 | ≥ 5
C=CC(=O)N1CCCN(c2ccc3ncnc(Nc4ccc(Oc5ccc6c(c5)ncn6C)c(C)c4)c3n2)CC1 [Example 108, 1-(4-(4-((3-methyl-4-((1-methyl-1H-benzo[d]imidazol-5-yl)oxy)phenyl)amino)pyrido[3,2-d]pyrimidin-6-yl)-1,4-diazepan-1-yl)prop-2-en-1-one] | ≥ 10 | 30.1 | 0.0294 | 0.0074 | ≥ 5
C=CC(=O)N1CCN(c2ccc3ncnc(Nc4ccc(Oc5cnc6c(c5)ncn6C)c(C)c4)c3n2)CC1 [Example 110, 1-(4-(4-((3-methyl-4-((3-methyl-3H-imidazo[4,5-b]pyridin-6-yl)oxy)phenyl)amino)pyrido[3,2-d]pyrimidin-6-yl)piperazin-1-yl)prop-2-en-1-one] | 6.16 | 84.4 | 0.058 | 0.005 | 2.53
C=CC(=O)N1CCCN(c2ccc3ncnc(Nc4ccc(Oc5cnc6c(c5)ncn6C)c(Cl)c4)c3n2)CC1 [Example 113, 1-(4-(4-((3-chloro-4-((3-methyl-3H-imidazo[4,5-b]pyridin-6-yl)oxy)phenyl)amino)pyrido[3,2-d]pyrimidin-6-yl)-1,4-diazepan-1-yl)prop-2-en-1-one] | ≥ 10 | 37.5 | 0.184 | 0.0302 | ≥ 5
C=CC(=O)N1CCCN(c2ccc3ncnc(Nc4ccc(Oc5cnc6c(c5)ncn6C)c(C)c4)c3n2)CC1 [Example 114, 1-(4-(4-((3-methyl-4-((3-methyl-3H-imidazo[4,5-b]pyridin-6-yl)oxy)phenyl)amino)pyrido[3,2-d]pyrimidin-6-yl)-1,4-diazepan-1-yl)prop-2-en-1-one] | ≥ 10 | 23.5 | 0.255 | 0.0299 | ≥ 5
C=CC(=O)N1C[C@H]2CN(c3ccc4ncnc(Nc5ccc(Oc6ccc7c(c6)ncn7C)c(C)c5)c4n3)C[C@H]21 [Example 116, 1-((1R,5S)-3-(4-((3-methyl-4-((1-methyl-1H-benzo[d]imidazol-5-yl)oxy)phenyl)amino)pyrido[3,2-d]pyrimidin-6-yl)-3,6-diazabicyclo[3.2.0]heptan-6-yl)prop-2-en-1-one] | 2.58 | 22.4 | 0.0523 | 0.0102 | 1.58
C=CC(=O)N1CCC(c2ccc3ncnc(Nc4ccc(Oc5ccc6c(c5)ncn6C)c(C)c4)c3n2)CC1C (stereo not drawn) [Example 123, 1-(2-methyl-4-(4-((3-methyl-4-((1-methyl-1H-benzo[d]imidazol-5-yl)oxy)phenyl)amino)pyrido[3,2-d]pyrimidin-6-yl)piperidin-1-yl)prop-2-en-1-one] | ≥ 10 | 7.3 | 0.0604 | 0.0076 | ≥ 5
C=CC(=O)N1CCC(c2ccc3ncnc(Nc4ccc(Oc5ccc6c(c5)ncn6C)c(C)c4F)c3n2)CC1 [Example 146, 1-(4-(4-((2-fluoro-3-methyl-4-((1-methyl-1H-benzo[d]imidazol-5-yl)oxy)phenyl)amino)pyrido[3,2-d]pyrimidin-6-yl)piperidin-1-yl)prop-2-en-1-one] | 2.58 | 4.3 | 0.0158 | 0.0367 | ≥ 5
